The target in the assay is DNA-dependent protein kinase catalytic subunit (Homo sapiens, UniProt P78527). As to the kind of experiment: Inhibition of DNA-PK Kinase. As to the method: IC50 was calculated using GraphPad Prism 8.
Sequence of DNA-dependent protein kinase catalytic subunit (P78527 whole entry): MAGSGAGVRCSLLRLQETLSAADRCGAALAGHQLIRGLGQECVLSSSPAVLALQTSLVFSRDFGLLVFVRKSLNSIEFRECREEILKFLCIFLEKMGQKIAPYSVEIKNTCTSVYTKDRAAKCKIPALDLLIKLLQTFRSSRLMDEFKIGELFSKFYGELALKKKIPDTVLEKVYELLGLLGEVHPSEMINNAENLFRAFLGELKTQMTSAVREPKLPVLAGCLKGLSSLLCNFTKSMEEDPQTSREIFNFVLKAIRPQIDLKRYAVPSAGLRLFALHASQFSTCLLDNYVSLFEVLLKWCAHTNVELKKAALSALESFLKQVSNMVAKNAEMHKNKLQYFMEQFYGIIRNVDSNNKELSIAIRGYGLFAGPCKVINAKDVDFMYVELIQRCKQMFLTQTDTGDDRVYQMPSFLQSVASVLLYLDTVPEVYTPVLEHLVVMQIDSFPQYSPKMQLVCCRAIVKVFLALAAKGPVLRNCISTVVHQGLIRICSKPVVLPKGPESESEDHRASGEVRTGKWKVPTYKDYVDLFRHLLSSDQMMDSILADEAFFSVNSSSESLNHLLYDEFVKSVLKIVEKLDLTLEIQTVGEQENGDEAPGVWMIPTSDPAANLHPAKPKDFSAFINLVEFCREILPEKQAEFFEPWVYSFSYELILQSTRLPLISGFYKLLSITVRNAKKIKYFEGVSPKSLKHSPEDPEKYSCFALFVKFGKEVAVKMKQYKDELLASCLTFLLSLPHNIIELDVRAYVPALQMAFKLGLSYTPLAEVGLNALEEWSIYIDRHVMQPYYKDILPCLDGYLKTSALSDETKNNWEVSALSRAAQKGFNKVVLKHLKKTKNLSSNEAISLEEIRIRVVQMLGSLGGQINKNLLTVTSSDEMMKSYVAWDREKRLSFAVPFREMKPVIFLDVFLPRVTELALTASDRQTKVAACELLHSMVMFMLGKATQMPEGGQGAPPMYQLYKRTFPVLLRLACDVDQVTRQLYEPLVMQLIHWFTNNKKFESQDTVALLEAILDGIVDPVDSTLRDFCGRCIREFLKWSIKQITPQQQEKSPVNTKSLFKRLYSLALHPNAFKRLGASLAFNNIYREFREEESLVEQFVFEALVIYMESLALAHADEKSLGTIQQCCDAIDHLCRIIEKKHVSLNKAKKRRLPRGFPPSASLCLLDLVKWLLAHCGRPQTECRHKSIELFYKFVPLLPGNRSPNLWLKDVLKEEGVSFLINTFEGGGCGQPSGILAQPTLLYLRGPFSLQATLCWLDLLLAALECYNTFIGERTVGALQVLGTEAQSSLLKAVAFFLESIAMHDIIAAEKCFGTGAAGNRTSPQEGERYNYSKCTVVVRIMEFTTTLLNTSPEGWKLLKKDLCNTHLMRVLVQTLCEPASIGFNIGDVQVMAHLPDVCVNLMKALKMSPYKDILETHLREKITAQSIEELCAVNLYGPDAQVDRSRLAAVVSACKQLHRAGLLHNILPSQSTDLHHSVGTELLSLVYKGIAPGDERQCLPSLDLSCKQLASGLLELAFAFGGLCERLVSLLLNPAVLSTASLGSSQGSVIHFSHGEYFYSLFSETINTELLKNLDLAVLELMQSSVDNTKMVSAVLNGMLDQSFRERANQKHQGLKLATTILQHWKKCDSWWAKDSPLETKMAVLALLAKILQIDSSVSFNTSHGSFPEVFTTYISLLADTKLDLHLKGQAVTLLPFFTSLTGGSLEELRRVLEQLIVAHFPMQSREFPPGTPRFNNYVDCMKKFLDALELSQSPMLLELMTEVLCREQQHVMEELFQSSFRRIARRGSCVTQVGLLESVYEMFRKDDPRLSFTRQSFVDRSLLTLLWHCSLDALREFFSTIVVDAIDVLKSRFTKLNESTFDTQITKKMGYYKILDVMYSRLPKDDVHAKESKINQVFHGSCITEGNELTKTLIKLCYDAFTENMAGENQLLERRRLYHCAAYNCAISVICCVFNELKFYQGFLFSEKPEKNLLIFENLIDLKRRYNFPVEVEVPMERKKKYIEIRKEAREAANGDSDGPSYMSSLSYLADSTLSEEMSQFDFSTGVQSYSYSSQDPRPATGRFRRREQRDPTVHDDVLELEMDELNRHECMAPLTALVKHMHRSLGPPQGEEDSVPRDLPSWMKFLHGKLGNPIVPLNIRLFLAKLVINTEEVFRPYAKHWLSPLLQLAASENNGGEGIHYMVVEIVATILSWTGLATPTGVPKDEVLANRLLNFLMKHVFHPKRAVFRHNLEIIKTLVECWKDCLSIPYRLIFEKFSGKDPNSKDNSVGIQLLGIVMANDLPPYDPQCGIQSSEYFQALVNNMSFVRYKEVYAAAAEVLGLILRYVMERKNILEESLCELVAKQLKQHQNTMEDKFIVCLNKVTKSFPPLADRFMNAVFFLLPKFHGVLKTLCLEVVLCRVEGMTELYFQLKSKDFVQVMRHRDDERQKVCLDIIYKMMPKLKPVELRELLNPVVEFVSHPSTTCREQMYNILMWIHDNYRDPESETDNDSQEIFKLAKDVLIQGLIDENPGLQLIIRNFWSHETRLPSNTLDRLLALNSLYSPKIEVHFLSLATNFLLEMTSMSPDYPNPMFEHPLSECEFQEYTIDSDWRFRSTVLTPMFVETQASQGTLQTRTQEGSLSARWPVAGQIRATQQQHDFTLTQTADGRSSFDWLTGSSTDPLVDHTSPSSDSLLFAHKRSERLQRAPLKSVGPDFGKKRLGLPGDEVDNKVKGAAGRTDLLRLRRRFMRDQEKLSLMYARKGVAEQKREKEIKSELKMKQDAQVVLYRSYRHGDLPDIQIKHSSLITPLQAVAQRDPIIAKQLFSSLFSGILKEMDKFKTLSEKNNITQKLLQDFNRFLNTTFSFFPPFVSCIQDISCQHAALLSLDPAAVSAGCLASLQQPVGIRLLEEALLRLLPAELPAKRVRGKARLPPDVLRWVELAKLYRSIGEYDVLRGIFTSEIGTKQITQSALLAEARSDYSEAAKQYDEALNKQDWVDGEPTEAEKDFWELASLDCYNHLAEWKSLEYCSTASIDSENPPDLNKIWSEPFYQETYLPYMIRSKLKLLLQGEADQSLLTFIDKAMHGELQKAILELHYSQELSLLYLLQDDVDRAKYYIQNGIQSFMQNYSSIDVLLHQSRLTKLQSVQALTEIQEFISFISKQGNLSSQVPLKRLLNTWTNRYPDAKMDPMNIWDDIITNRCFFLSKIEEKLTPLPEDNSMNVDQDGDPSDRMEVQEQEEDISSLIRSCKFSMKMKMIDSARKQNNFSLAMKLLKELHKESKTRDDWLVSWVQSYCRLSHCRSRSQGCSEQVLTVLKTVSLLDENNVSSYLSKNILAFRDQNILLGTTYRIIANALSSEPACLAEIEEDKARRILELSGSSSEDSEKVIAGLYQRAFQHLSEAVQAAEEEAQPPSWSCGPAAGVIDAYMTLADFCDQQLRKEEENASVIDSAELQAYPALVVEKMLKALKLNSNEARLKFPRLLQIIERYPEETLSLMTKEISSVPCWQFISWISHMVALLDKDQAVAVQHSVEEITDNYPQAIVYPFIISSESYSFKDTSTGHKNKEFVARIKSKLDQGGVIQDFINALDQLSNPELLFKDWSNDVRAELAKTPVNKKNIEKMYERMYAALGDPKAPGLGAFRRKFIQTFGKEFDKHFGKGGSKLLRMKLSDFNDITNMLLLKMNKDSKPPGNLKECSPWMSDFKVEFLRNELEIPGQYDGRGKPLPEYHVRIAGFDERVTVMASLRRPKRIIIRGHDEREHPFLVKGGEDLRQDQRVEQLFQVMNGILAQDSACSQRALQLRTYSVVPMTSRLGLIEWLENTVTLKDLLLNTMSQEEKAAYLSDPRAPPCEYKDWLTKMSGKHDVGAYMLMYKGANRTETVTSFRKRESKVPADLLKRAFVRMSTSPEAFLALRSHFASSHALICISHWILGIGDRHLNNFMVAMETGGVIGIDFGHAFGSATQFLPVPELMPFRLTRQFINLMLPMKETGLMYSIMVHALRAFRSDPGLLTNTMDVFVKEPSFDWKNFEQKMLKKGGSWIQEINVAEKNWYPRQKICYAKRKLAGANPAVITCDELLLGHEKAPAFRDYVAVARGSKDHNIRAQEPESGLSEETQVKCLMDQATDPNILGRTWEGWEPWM

One may read the IC50 as the concentration that gives 50% inhibition. High values mean weaker potency in that assay, low ones greater potency in that assay. On to `COC1(OC)C2CC3CC1CC(n1c(=O)n(C)c4cnc(Nc5cc(F)c(C(N)=O)cc5C)nc41)(C3)C2` [US12552793, Compound 26], for which half-maximal inhibition (IC50) was put at 0.01 nM. That is a picomolar value. In the case of `Cc1cc(C(N)=O)c(F)cc1Nc1ncc2c(n1)n(C13CC4CC(C1)C(O)C(C4)C3)c(=O)n2C` (centres undefined) [US12552793, Compound 17-2], the IC50 turned out to be 2.2 nM. `[2H]C1(O)C2CC3CC1CC(n1c(=O)n(C)c4cnc(Nc5cn6ncnc6cc5C)nc41)(C3)C2` (centres undefined) [US12552793, Compound 20-1] returned an IC50 of 0.03 nM. Then `[2H]C1(O)C2CC3CC1CC(n1c(=O)n(C)c4cnc(Nc5cc(F)c(C(N)=O)cc5C)nc41)(C3)C2` (centres undefined) [US12552793, Compound 23-2], with 0.85 nM; and `Cc1cc2ncnn2cc1Nc1ncc2c(n1)n(C1C3CC4CC1CC(O)(C4)C3)c(=O)n2C` (centres undefined) [US12552793, Compound 16-1], with 0.52 nM; and `[2H]C1(O)C2CC3CC1CC(n1c(=O)n(C)c4cnc(Nc5cc(F)c(C(N)=O)cc5C)nc41)(C3)C2` (centres undefined) [US12552793, Compound 23-1], with 2.84 nM. In the case of `Cc1cc2ncnn2cc1Nc1ncc2c(n1)n(C1C3CC4CC1CC(O)(C4)C3)c(=O)n2C` (centres undefined) [US12552793, Compound 16-2] it was 2.49 nM; in that of `Cc1cc(C(N)=O)c(F)cc1Nc1ncc2c(n1)n(C13CC4CC(C1)C(O)C(C4)C3)c(=O)n2C` (centres undefined) [US12552793, Compound 17-1], 0.01 nM; in that of `[2H]C1(O)C2CC3CC1CC(n1c(=O)n(C)c4cnc(Nc5cn6ncnc6cc5C)nc41)(C3)C2` (centres undefined) [US12552793, Compound 20-2], 1.1 nM.
